Earlier results as cited in patent US7510874B2, “Stable cell lines expressing HERG1a and HERG1b” (priority 2003, dated 2009).

Target: IKr currents (Homo sapiens, UniProt Q12809)
Conditions: background statement with literature references

IKr currents, sequence (Q12809 whole entry): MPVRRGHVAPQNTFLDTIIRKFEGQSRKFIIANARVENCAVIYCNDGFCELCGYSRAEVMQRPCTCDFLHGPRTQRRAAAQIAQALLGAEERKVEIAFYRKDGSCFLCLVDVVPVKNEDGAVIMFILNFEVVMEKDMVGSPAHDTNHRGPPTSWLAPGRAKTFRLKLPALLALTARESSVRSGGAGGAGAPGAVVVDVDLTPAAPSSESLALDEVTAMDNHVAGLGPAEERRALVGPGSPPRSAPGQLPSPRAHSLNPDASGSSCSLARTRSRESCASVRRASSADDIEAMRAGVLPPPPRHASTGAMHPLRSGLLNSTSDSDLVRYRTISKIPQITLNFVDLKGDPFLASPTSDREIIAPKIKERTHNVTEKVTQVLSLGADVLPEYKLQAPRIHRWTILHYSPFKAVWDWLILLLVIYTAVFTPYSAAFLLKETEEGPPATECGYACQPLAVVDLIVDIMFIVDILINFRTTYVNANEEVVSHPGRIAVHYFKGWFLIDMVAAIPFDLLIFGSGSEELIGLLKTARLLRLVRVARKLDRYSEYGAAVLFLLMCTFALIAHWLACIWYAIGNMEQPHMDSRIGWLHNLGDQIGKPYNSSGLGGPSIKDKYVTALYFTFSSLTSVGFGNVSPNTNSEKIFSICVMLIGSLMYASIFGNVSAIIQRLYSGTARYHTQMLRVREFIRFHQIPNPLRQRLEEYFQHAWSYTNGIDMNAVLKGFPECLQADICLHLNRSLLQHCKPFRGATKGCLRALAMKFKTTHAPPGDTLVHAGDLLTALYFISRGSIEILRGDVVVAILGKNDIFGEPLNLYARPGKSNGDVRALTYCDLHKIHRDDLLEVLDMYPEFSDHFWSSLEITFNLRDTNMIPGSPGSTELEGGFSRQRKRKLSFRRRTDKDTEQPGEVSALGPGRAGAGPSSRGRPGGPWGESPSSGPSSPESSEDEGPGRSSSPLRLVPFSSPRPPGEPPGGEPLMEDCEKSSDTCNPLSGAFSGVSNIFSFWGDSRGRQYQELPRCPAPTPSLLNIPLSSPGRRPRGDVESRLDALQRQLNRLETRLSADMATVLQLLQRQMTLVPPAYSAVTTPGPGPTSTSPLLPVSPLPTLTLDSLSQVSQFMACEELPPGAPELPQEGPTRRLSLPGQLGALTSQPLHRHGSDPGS

SMILES: COc1cc(N)c(Cl)cc1C(=O)NC1CCN(CCCOc2ccc(F)cc2)CC1OC (stereo not shown) [cisapride]
- block of IKr currents (cause of acquired LQTS): block of IKr currents
